The results in this text go back to ChEMBL document CHEMBL3045273, “Synthesis, characterization, and pharmacological evaluation of 1-[2-(6-nitro-4-oxo-2-phenyl-4H-quinazolin-3-yl)-ethyl]-3-phenyl ureas” (2013).

The subject of assay [1] is Bacillus subtilis. Kind of assay: Antibacterial activity against Bacillus subtilis ATCC 11774 assessed as growth inhibition at 300 ug/ml after 24 hr by Kirby-Bauer disk diffusion method. Type of assay: functional. Conditions: ATCC 11774, 24 h, read-out: DIZ. On the technique in general: Agar diffusion results depend on both activity and mobility in agar.
The subject of assay [2] is Candida albicans. Kind of assay: Antifungal activity against Candida albicans ATCC 66027 assessed as growth inhibition at 300 ug/ml after 24 hr by Kirby-Bauer disk diffusion method. Type of assay: functional. The note with it: ATCC 66027, 24 h, read-out: DIZ.
Assay [3] relates to Candida albicans. Kind of assay: Antifungal activity against Candida albicans ATCC 66027 assessed as initial concentration required for appearance of zone of inhibition after 24 hr. It counts as functional.
Assay [4] deals with Escherichia coli. Briefly: microbe, parasite or virus in culture. Conditions: ATCC 25922, 24 h, read-out: DIZ.
Description: Antibacterial activity against Escherichia coli ATCC 25922 assessed as growth inhibition at 100 ug/ml after 24 hr by Kirby-Bauer disk diffusion method
Assay [5] deals with Staphylococcus aureus. Briefly: Antibacterial activity against Staphylococcus aureus ATCC 25923 assessed as growth inhibition at 300 ug/ml after 24 hr by Kirby-Bauer disk diffusion method. The note with it: ATCC 25923, 24 h, read-out: DIZ. It counts as functional.
The subject of assay [6] is Pseudomonas aeruginosa. Kind of assay: Antibacterial activity against Pseudomonas aeruginosa ATCC 27853 assessed as growth inhibition at 100 ug/ml after 24 hr by Kirby-Bauer disk diffusion method. The note with it: ATCC 27853, 24 h, read-out: DIZ. It counts as functional.
Assay [7] relates to Pseudomonas aeruginosa. Briefly: Antibacterial activity against Pseudomonas aeruginosa ATCC 27853 assessed as growth inhibition after 24 hr by serial broth dilution method. Type of assay: functional. Conditions: ATCC 27853, 24 h. (In general: Broth dilution looks for growth in wells or tubes with falling amounts of substance.)
The subject of assay [8] is Pseudomonas aeruginosa. Briefly: Antibacterial activity against Pseudomonas aeruginosa ATCC 27853 assessed as growth inhibition at 300 ug/ml after 24 hr by Kirby-Bauer disk diffusion method. It counts as functional. Conditions: ATCC 27853, 24 h, read-out: DIZ.
Assay [9] relates to Escherichia coli. Briefly: Antibacterial activity against Escherichia coli ATCC 25922 assessed as growth inhibition at 40 ug/ml after 24 hr by Kirby-Bauer disk diffusion method. Conditions: ATCC 25922, 24 h, read-out: DIZ. It counts as functional.
Assay [10] has as its system Pseudomonas aeruginosa. Briefly: Antibacterial activity against Pseudomonas aeruginosa ATCC 27853 assessed as initial concentration required for appearance of zone of inhibition after 24 hr. It counts as functional.
The subject of assay [11] is Candida albicans. Briefly: Antifungal activity against Candida albicans ATCC 66027 assessed as growth inhibition after 24 hr by serial broth dilution method. It counts as functional. The note with it: ATCC 66027, 24 h.
Assay [12] deals with Candida albicans. Kind of assay: Antifungal activity against Candida albicans ATCC 66027 assessed as growth inhibition at 100 ug/ml after 24 hr by Kirby-Bauer disk diffusion method. Type of assay: functional. Conditions: ATCC 66027, 24 h, read-out: DIZ.
The test system of assay [13] is Escherichia coli. Briefly: Antibacterial activity against Escherichia coli ATCC 25922 assessed as initial concentration required for appearance of zone of inhibition after 24 hr. It counts as functional.
Assay [14] has as its system Bacillus subtilis. Kind of assay: Antibacterial activity against Bacillus subtilis ATCC 11774 assessed as initial concentration required for appearance of zone of inhibition after 24 hr. It counts as functional.
Assay [15] deals with Bacillus subtilis. Briefly: Antibacterial activity against Bacillus subtilis ATCC 11774 assessed as growth inhibition after 24 hr by serial broth dilution method. It counts as functional. Conditions: ATCC 11774, 24 h.
The subject of assay [16] is Escherichia coli. Kind of assay: microbe, parasite or virus in culture. The note with it: ATCC 25922, 24 h, read-out: DIZ. This is another data set of the same source.
Description: Antibacterial activity against Escherichia coli ATCC 25922 assessed as growth inhibition at 300 ug/ml after 24 hr by Kirby-Bauer disk diffusion method
Assay [17] concerns Bacillus subtilis. Briefly: Antibacterial activity against Bacillus subtilis ATCC 11774 assessed as growth inhibition at 100 ug/ml after 24 hr by Kirby-Bauer disk diffusion method. It counts as functional. Conditions: ATCC 11774, 24 h, read-out: DIZ.
For assay [18], the system named is Escherichia coli. Briefly: Antibacterial activity against Escherichia coli ATCC 25922 assessed as growth inhibition after 24 hr by serial broth dilution method. It counts as functional. Conditions: ATCC 25922, 24 h.
Assay [19] has as its system Staphylococcus aureus. Kind of assay: Antibacterial activity against Staphylococcus aureus ATCC 25923 assessed as growth inhibition at 100 ug/ml after 24 hr by Kirby-Bauer disk diffusion method. Type of assay: functional. Conditions: ATCC 25923, 24 h, read-out: DIZ.
In assay [20] the test system is Staphylococcus aureus. Briefly: Antibacterial activity against Staphylococcus aureus ATCC 25923 assessed as initial concentration required for appearance of zone of inhibition after 24 hr. It counts as functional.
Assay [21] has as its system Staphylococcus aureus. Kind of assay: Antibacterial activity against Staphylococcus aureus ATCC 25923 assessed as growth inhibition after 24 hr by serial broth dilution method. Type of assay: functional. Conditions: ATCC 25923, 24 h.
In assay [22] the test system is Escherichia coli. Briefly: Antibacterial activity against Escherichia coli ATCC 25922 assessed as growth inhibition at 70 ug/ml after 24 hr by Kirby-Bauer disk diffusion method. It counts as functional. Conditions: ATCC 25922, 24 h, read-out: DIZ.
Assay [23] deals with Candida albicans. Briefly: Antifungal activity against Candida albicans ATCC 66027 assessed as growth inhibition at 20 ug/ml after 24 hr by Kirby-Bauer disk diffusion method. It counts as functional. The note with it: ATCC 66027, 24 h, read-out: DIZ.

In brackets after ≈: the same amount, converted by molar mass.

In general, MIC refers to the lowest concentration that inhibits growth of the organism. Turning to `Cc1ccccc1NC(=O)NCCn1c(-c2ccccc2)nc2ccc([N+](=O)[O-])cc2c1=O`, the zone of inhibition at 300 µg/mL came to 14 mm in the assay on Bacillus subtilis [1]; 19 mm in the assay on Candida albicans [2]; 14 mm in the assay with Staphylococcus aureus [5]; 18 mm in the assay on Pseudomonas aeruginosa [8]; 16 mm in the assay with Escherichia coli [16]. In addition, the Activity with Candida albicans [3] came out at 20 µg/mL; in the assay on Pseudomonas aeruginosa [10] it was 70 µg/mL; in the assay with Escherichia coli [13], 40 µg/mL; with Bacillus subtilis [14], 100 µg/mL; with Staphylococcus aureus [20], 70 µg/mL. Moreover, the zone of inhibition at 100 µg/mL came out at 13 mm in the assay with Escherichia coli [4]; 12 mm with Pseudomonas aeruginosa [6]; 16 mm with Candida albicans [12]; 11 mm in the assay on Bacillus subtilis [17]; 12 mm in the assay with Staphylococcus aureus [19]. In addition, the MIC was found to be 40 mg/L (≈ 90.2 µM) in the assay with Pseudomonas aeruginosa [7]; 20 mg/L (≈ 45.1 µM) in the assay with Candida albicans [11]; 70 mg/L (≈ 158 µM) with Bacillus subtilis [15]; 40 mg/L (≈ 90.2 µM) with Escherichia coli [18]; 70 mg/L (≈ 158 µM) in the assay with Staphylococcus aureus [21]. Besides, the zone of inhibition at 40 µg/mL in the assay with Escherichia coli [9] is 11 mm.
In the case of `CC1CCC(NC(=O)NCCn2c(-c3ccccc3)nc3ccc([N+](=O)[O-])cc3c2=O)CC1` (stereo not given), the zone of inhibition at 300 µg/mL in the assay on Bacillus subtilis [1] is 14 mm; with Candida albicans [2], 20 mm; with Staphylococcus aureus [5], 14 mm; in the assay on Pseudomonas aeruginosa [8], 21 mm; in the assay on Escherichia coli [16] it was 17 mm. Further, the Activity came out at 20 µg/mL with Candida albicans [3]; 70 µg/mL with Pseudomonas aeruginosa [10]; 70 µg/mL in the assay on Escherichia coli [13]; 100 µg/mL with Bacillus subtilis [14]; 100 µg/mL in the assay with Staphylococcus aureus [20]. Also, the zone of inhibition at 100 µg/mL in the assay with Escherichia coli [4] was 13 mm; with Pseudomonas aeruginosa [6], 12 mm; in the assay with Candida albicans [12], 15 mm; with Bacillus subtilis [17], 11 mm; with Staphylococcus aureus [19], 11 mm. Moreover, the MIC with Pseudomonas aeruginosa [7] is 70 mg/L (≈ 156 µM); in the assay with Candida albicans [11] it was 10 mg/L (≈ 22.2 µM); in the assay on Bacillus subtilis [15], 100 mg/L (≈ 222 µM); with Escherichia coli [18] it was 40 mg/L (≈ 89 µM); with Staphylococcus aureus [21], 100 mg/L (≈ 222 µM). Moreover, the zone of inhibition at 70 µg/mL with Escherichia coli [22] stood at 11 mm. In addition, in the assay on Candida albicans [23], the zone of inhibition at 20 µg/mL amounted to 11 mm.
In the case of `Cc1ccc(NC(=O)NCCn2c(-c3ccccc3)nc3ccc([N+](=O)[O-])cc3c2=O)cc1`, the zone of inhibition at 300 µg/mL in the assay with Bacillus subtilis [1] was determined as 15 mm; in the assay with Candida albicans [2] it was 17 mm; in the assay on Staphylococcus aureus [5] it was 14 mm; with Pseudomonas aeruginosa [8] it was 17 mm; in the assay with Escherichia coli [16], 17 mm. In addition, the Activity in the assay on Candida albicans [3] was found to be 20 µg/mL; in the assay with Pseudomonas aeruginosa [10] it was 70 µg/mL; with Escherichia coli [13], 40 µg/mL; in the assay on Bacillus subtilis [14] it was 70 µg/mL; in the assay with Staphylococcus aureus [20], 70 µg/mL. Also, the zone of inhibition at 100 µg/mL in the assay with Escherichia coli [4] was found to be 14 mm; in the assay on Pseudomonas aeruginosa [6], 12 mm; with Candida albicans [12], 14 mm; in the assay with Bacillus subtilis [17] it was 12 mm; with Staphylococcus aureus [19] it was 12 mm. The MIC with Pseudomonas aeruginosa [7] was 70 mg/L (≈ 158 µM); in the assay with Candida albicans [11], 20 mg/L (≈ 45.1 µM); in the assay on Bacillus subtilis [15], 70 mg/L (≈ 158 µM); in the assay on Escherichia coli [18], 40 mg/L (≈ 90.2 µM); in the assay on Staphylococcus aureus [21], 70 mg/L (≈ 158 µM). For the same compound, in the assay on Escherichia coli [9], the zone of inhibition at 40 µg/mL is 11 mm.
Regarding `O=C(NCCn1c(-c2ccccc2)nc2ccc([N+](=O)[O-])cc2c1=O)Nc1ccccc1Cl`, the zone of inhibition at 300 µg/mL with Bacillus subtilis [1] was 15 mm; in the assay with Candida albicans [2] it was 20 mm; with Staphylococcus aureus [5] it was 14 mm; in the assay on Pseudomonas aeruginosa [8], 19 mm; with Escherichia coli [16], 18 mm. Moreover, the Activity was found to be 40 µg/mL in the assay on Candida albicans [3]; 70 µg/mL in the assay with Pseudomonas aeruginosa [10]; 70 µg/mL in the assay with Escherichia coli [13]; 70 µg/mL in the assay on Bacillus subtilis [14]; 100 µg/mL in the assay on Staphylococcus aureus [20]. Moreover, the zone of inhibition at 100 µg/mL with Escherichia coli [4] amounted to 14 mm; with Pseudomonas aeruginosa [6] it was 13 mm; with Candida albicans [12], 16 mm; with Bacillus subtilis [17] it was 12 mm; with Staphylococcus aureus [19], 11 mm. Also, the MIC in the assay with Pseudomonas aeruginosa [7] came out at 100 mg/L (≈ 216 µM); with Candida albicans [11] it was 20 mg/L (≈ 43.1 µM); in the assay on Bacillus subtilis [15], 70 mg/L (≈ 151 µM); with Escherichia coli [18] it was 70 mg/L (≈ 151 µM); with Staphylococcus aureus [21], 100 mg/L (≈ 216 µM). For the same compound, the zone of inhibition at 70 µg/mL with Escherichia coli [22] came out at 11 mm.
